Assay results from patent publication US10220024B2, “Method of inhibiting cancer cell, method for detecting cancer cell, and system for detecting cancer cell” (CANON KABUSHIKI KAISHA, priority 2012, dated 2019).
Where two headings read alike, the source gives them in different places.

Assays:
[1] = Measurement of fluorescent property of compound (spectrofluorometer); format: physicochemical; conditions: 5 μM DMSO solution
Protocol: The excitation wavelength and fluorescence wavelength of the compound were measured by a FL4500 spectrofluorometric measuring machine manufactured by Hitachi High-Technologies Corporation.

K562 ALDH (−) cells = assay: Cancer stem-cell selective staining, fluorescent microscopy, ALDH (−) cells; format: cell-based, Human; conditions: cells cultured for 24 hours in Experimental Example 16 (1 μg/mL)
Protocol: (§1) The cells cultured for 24 hours in Experimental Example 16 were subjected to nuclear staining with Hoechest33342 (manufactured by Dojindo Laboratories) and a fluorescent image observed under AXIOVERT200M inverted fluorescent microscope (manufactured by Carl Zeiss) was photographed.

K562 ALDH (+) cells = assay: Cancer stem-cell selective staining, fluorescent microscopy, ALDH (+) cells; format: cell-based, Human
Protocol: as §1

[2] = system: K562 ALDH (+) fraction (cancer stem cells); assay: Cancer stem-cell selective inhibitory action against chronic myelocytic leukemia cells, ALDH (+) fraction, CellTiter-Glo; format: cell-based; conditions: Homo sapiens, 24 hours; for activity at 0.05 µg/mL: 0.05 μg/mL; for activity at 0.5 µg/mL: 0.5 μg/mL; for activity at 1 µg/mL: 1 μg/mL
How it was run: (§2)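 ALDEFLUOR-sorted K562 fractions, ALDH (+) with ≥80% stem cells and ALDH (−), cultured 24 h at 37° C. with compound at the stated final concentrations. Viable cells counted by CellTiter-Glo luminescence. Growth is expressed relative to 0.1% DMSO control […], and scored as ALDH (+) and ALDH (+)/ALDH (−) categories.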

[3] = system: Prostatic cancer cells, PC-3; assay: Cancer cell inhibitory (growth suppressive) action against prostatic cancer cells, CellTiter-Glo viable cell count; format: cell-based; conditions: PC-3, 10 μg/mL, 24 hours
Protocol: Prostatic cancer cells, PC-3, were pre-cultured in RPMI1640 medium containing 10% FBS at 37° C. in a 5% CO2 ambient. Thereafter, 4,000 cells were seeded per well of a 96-well plate and further cultured for 24 hours. Subsequently, Compound (11) was added to the medium so as to obtain a final concentration of 10 μg/mL and cultured at 37° C. for 24 hours in a 5% CO2 ambient. The cultured cells were analyzed for viable cell count according to CellTiter-Glo Luminescent Cell Viability Assay (manufactured by Promega KK.). As a reference, the number of cells cultured in a medium containing a 0.1% dimethylsulfoxide solution (hereinafter, simply referred to as DMSO) in place of a medium containing Compound (11), in the aforementioned operation, was used as 100.
Viable cell count was analyzed in the same manner as in Experimental Example 8 except that the compounds shown in Table 3 were used in place of Compound (11) of Experimental Example 8.
Viable cell count was analyzed in the same manner as in Experimental Example 8 except that comparative compounds 1 to 4 were used in place of Compound (11) of Experimental Example 8.
The growth rate in Examples herein is a numerical value of the number of cells obtained after culture relative to the number of cells (regarded as 100) grown in a medium containing 0.1% DMSO.
Evaluation of cancer cell inhibition against the prostatic cancer cells (PC-3) was made as follows. • A: Cancer cell growth rate is less than 20% (cancer cell inhibitory (growth suppressive) effect is extremely high) • B: Cancer cell growth rate is 20% or more and less than 50% (cancer cell inhibitory (growth suppressive) effect is high) • C: Cancer cell growth rate is 50% or more (cancer cell inhibitory (growth suppressive) effect is low)

[4] = system: K562 ALDH (−) fraction (general cancer cells); assay: Cancer stem-cell selective inhibitory action against chronic myelocytic leukemia cells, ALDH (−) fraction, CellTiter-Glo; format: cell-based, Human; conditions: Homo sapiens, 24 hours, relative to 0.1% DMSO, read-out: ALDH(−) (growth rate)
How it was run: as §2

[5] = read-out: Growth suppression evaluated
[6] = relative to 0.1% DMSO, read-out: ALDH(+) (growth rate)

For `COc1ccc(N2c3ccc(/C=C/C4=[N+](C)c5ccccc5C4(C)C)cc3C3CCCC32)cc1` (stereo not shown) [Compound 11], the Excitation wavelength λex [1] was 614 nm, the Fluorescence wavelength λem [1] was 669 nm and the “ALDH(−) (ratio of ALDH (−) cells stained)” value (K562 ALDH (−) cells) was 48.5%. For the same compound, the “Selective staining of cancer stem cells” value (K562 ALDH (+) cells; ALDH (+) versus ALDH (−) K562 cells) was “selectively stained”, the “ALDH(+) (ratio of ALDH (+) cells stained)” value (K562 ALDH (+) cells; cells cultured for 24 hours in Experimental Example 16 (1 μg/mL)) was 76.7% and the activity at 0.05 µg/mL [2, 5] was 50 to 95%. For the same compound, the activity at 0.05 µg/mL [2, 6] was 65%, the activity at 0.5 µg/mL [2, 5] was < 50% and the activity at 0.5 µg/mL [2, 6] was 32%. For the same compound, the activity at 1 µg/mL [2, 5] was < 50%, the activity at 1 µg/mL [2, 6] was 12% and the activity at 10 µg/mL ([3]; read-out: Evaluation (cancer cell growth rate)) was < 20%. The activity at 10 µg/mL ([3]; relative to 0.1% DMSO (100), read-out: Cancer cell growth rate (%)) was 6.7%, the activity at 0.05 µg/mL ([4]; 0.05 μg/mL) was 77% and the activity at 0.5 µg/mL ([4]; 0.5 μg/mL) was 49%. It also gave an activity at 1 µg/mL ([4]; 1 μg/mL) of 22%.
